Assay results published in US20060229299A1, “5ht2c Receptor antagonists in the treatment of schizophrenia” (priority 2003, published 2006).
Read-outs that look alike come from different tables or passages of the source.

Tests used:
[1] = test system: 5-HT2C receptor relative to 5-HT2A and D2 receptors; experiment: Relative 5-HT2C affinity (formula I, sum of 5-HT2C/5-HT2A and 5-HT2C/D2 affinity ratios)
[2] = target: D2 receptor (Homo sapiens, UniProt P14416); conditions: Table 3; expressed as pKi or pKd values; known affinities; cited from earlier work
[3] = target: 5-HT2A receptor (Homo sapiens, UniProt P28223); conditions: Table 3; expressed as pKi or pKd values; known affinities; cited from earlier work
[4] = target: α1-adrenoceptor; conditions: human, expressed as KD; cited from earlier work
[5] = set-up: key: 1-high; 2-medium; 3-low probability; conditions: Table 4A; grading of probability from literature reports; cited from earlier work
[6] = target: T1, 5-HT2C receptor (Homo sapiens, UniProt P28335); conditions: Table 3; expressed as pKi or pKd values; known affinities; cited from earlier work
T1 sequence (P28335 33-458): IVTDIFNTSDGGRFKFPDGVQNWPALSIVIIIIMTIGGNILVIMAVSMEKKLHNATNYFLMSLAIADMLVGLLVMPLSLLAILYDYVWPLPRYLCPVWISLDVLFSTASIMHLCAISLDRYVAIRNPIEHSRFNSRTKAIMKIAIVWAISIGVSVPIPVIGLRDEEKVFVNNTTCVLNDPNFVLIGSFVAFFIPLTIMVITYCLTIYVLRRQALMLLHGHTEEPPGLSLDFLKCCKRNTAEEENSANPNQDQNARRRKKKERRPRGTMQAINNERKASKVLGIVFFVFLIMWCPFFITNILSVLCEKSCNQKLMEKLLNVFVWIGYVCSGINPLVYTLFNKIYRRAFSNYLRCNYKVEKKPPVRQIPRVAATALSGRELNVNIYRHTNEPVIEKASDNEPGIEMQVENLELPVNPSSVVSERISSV

[7] = target: T2, 5-HT2C receptor (Sus scrofa, UniProt K7GSR7); conditions: pig; cited from earlier work
T2 sequence (K7GSR7 1-457): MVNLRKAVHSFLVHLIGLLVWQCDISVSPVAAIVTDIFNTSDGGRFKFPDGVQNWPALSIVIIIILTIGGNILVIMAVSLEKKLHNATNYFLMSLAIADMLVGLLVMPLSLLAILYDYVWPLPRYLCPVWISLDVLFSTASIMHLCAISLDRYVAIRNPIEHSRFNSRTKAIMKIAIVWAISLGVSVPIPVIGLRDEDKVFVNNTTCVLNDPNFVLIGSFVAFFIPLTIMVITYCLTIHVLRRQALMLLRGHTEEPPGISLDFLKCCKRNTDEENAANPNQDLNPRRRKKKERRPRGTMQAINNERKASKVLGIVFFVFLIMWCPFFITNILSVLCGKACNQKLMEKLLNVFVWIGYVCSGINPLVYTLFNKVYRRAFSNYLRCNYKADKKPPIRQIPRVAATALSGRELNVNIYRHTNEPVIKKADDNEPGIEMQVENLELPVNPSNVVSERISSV

[8] = target: α2-adrenoceptor; conditions: cited from earlier work
[9] = target: T3, 5-HT1A receptor (Rattus norvegicus, UniProt P19327); conditions: cited from earlier work
T3 sequence (P19327 1-422): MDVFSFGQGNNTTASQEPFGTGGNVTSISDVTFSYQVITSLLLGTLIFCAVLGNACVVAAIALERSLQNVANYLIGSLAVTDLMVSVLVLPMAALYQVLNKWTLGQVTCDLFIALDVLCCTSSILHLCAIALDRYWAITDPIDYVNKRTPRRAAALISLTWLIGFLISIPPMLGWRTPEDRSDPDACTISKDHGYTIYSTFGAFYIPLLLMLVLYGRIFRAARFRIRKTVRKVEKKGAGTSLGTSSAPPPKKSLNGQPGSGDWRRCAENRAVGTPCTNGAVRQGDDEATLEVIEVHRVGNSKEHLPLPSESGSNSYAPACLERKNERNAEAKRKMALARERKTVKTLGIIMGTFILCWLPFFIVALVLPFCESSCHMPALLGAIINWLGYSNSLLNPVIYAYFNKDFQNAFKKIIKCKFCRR

[10] = target: α1-adrenoceptor; conditions: species for α1 not given; cited from earlier work
[11] = target: D2-S (short form of D2 receptor) (Homo sapiens, UniProt P14416); conditions: cited from earlier work
[12] = target: T4, D4 dopamine receptor (Homo sapiens, UniProt P21917); conditions: human; cited from earlier work
T4 sequence (P21917 1-419): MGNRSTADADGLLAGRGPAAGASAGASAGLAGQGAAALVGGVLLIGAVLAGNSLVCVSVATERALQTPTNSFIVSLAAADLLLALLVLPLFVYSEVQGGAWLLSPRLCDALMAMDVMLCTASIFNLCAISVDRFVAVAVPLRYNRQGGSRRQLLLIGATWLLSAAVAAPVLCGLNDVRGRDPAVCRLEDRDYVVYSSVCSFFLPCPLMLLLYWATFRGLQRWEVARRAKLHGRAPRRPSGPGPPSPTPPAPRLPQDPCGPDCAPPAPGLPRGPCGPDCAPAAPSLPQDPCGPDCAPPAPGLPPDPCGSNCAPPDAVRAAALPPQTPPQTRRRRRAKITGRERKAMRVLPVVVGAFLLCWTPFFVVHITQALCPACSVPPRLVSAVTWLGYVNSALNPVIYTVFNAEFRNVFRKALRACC

[13] = target: mACh, muscarinic acetylcholine receptor; conditions: rat; cited from earlier work
[14] = target: T5, 5-HT3 receptor (Mus musculus, UniProt P23979); conditions: cited from earlier work
T5 sequence (P23979 24-489): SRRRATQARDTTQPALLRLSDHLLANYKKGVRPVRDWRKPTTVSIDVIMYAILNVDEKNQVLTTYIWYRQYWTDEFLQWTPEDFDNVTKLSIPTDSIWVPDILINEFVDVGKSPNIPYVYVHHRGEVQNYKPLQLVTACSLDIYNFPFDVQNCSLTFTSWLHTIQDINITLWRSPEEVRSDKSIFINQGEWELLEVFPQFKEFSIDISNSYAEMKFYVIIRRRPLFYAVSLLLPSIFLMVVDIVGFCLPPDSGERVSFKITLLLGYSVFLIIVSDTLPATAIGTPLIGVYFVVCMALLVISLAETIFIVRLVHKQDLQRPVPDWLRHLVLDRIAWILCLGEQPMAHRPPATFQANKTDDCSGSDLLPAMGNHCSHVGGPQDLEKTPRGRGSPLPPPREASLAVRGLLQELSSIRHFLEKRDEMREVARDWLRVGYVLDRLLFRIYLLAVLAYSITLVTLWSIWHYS

[15] = target: 5-HT7 receptor (Mus musculus, UniProt P32304); conditions: cited from earlier work
[16] = target: D2-L (long form of D2 receptor) (Homo sapiens, UniProt P14416); conditions: cited from earlier work
[17] = target: sigma, σ receptor; conditions: guinea-pig; cited from earlier work
[18] = set-up: key: 1-high; 2-medium; 3-low probability; conditions: Table 4A; grading of probability from literature reports; cited from earlier work; remark: listed apart in the source
[19] = set-up: key to Weight Gain: 1-high; 2-medium; 3-low probability; conditions: cited from earlier work; for Weight Gain: Table 4A, grading of probability from literature reports
[20] = target: 5-HT7 receptor (Rattus norvegicus, UniProt P32305); conditions: cited from earlier work
[21] = target: 5-HT6 receptor (Rattus norvegicus, UniProt P31388); conditions: cited from earlier work
[22] = target: D1 dopamine receptor (Homo sapiens, UniProt P21728); conditions: cited from earlier work
[23] = target: D1 dopamine receptor (Rattus norvegicus, UniProt P18901); conditions: cited from earlier work
[24] = target: α1-adrenoceptor; conditions: rat; cited from earlier work
[25] = set-up: key: 1-high; 2-medium; 3-low probability; conditions: Table 4A; grading of probability from literature reports; cited from earlier work; remark: listed apart in the source
[26] = Table 3, calculated from known 5-HT2C/5-HT2A/D2 affinities

5-HT2A receptor, sequence (P28223 whole entry): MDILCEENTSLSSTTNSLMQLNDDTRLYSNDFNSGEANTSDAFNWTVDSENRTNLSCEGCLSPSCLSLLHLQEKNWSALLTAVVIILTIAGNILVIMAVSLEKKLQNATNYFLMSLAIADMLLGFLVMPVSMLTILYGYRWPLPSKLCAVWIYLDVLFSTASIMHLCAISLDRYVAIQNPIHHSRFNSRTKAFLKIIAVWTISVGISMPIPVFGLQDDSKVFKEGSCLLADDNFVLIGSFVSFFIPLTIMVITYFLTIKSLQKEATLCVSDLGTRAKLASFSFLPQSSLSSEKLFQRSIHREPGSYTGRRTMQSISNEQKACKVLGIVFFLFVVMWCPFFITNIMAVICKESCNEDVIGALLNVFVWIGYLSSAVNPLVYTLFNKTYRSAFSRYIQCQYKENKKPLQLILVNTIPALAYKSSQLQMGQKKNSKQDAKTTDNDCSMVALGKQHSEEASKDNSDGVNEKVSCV
D2 receptor, sequence (P14416 whole entry): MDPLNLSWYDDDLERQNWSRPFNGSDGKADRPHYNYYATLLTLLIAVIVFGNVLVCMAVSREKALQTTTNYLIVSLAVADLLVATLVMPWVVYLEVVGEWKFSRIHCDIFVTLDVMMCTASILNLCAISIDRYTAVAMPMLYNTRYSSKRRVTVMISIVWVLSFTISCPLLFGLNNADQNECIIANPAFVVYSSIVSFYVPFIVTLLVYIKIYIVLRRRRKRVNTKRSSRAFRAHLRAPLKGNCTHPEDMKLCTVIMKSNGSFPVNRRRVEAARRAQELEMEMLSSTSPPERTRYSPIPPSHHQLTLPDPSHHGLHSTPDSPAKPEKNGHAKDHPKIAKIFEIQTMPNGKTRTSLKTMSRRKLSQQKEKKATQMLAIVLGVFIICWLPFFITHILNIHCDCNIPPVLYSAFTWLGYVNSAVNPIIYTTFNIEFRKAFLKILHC
5-HT6 receptor, sequence (P31388 whole entry): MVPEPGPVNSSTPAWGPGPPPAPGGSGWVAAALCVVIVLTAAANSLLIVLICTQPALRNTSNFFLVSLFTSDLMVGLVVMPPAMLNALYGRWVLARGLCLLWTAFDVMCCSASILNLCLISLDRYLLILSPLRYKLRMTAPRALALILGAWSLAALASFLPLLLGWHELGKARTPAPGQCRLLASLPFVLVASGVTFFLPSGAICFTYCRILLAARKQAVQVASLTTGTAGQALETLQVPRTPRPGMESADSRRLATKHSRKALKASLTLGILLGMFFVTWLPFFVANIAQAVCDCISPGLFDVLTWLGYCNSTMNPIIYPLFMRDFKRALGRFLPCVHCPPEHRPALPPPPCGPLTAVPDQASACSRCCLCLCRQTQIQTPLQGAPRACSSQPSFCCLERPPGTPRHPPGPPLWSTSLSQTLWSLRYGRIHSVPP
5-HT7 receptor (Mus musculus, UniProt P32304), sequence (P32304 whole entry): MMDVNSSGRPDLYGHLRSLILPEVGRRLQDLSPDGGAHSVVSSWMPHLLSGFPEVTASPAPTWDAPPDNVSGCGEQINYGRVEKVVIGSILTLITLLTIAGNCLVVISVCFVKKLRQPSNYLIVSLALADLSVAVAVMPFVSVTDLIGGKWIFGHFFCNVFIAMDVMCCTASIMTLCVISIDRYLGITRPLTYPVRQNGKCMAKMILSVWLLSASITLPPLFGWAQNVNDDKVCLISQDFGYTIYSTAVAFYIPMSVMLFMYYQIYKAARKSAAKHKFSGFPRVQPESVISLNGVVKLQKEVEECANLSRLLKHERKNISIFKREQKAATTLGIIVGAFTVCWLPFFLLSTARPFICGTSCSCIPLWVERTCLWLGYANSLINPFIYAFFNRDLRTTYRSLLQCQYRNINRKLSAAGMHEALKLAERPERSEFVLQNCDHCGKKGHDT
5-HT7 receptor (Rattus norvegicus, UniProt P32305), sequence (P32305 whole entry): as the sequence (P32304 whole entry) above, with R27G, S39P, P53L, S279P, C438S counted along it
D1 dopamine receptor (Homo sapiens, UniProt P21728), sequence (P21728 whole entry): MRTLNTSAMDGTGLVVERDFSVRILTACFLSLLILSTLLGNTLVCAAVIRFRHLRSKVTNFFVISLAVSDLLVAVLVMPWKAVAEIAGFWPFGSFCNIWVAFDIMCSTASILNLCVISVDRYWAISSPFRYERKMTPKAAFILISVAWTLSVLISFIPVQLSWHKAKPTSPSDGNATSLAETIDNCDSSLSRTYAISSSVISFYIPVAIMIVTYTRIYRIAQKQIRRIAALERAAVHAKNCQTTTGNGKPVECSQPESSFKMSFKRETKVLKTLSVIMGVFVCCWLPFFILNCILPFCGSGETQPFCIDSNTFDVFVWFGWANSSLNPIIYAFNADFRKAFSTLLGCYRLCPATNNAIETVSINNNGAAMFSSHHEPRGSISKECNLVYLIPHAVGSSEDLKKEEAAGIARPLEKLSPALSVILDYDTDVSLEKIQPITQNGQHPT
D2-S (short form of D2 receptor), sequence (P14416 1-414 isoform P14416-2): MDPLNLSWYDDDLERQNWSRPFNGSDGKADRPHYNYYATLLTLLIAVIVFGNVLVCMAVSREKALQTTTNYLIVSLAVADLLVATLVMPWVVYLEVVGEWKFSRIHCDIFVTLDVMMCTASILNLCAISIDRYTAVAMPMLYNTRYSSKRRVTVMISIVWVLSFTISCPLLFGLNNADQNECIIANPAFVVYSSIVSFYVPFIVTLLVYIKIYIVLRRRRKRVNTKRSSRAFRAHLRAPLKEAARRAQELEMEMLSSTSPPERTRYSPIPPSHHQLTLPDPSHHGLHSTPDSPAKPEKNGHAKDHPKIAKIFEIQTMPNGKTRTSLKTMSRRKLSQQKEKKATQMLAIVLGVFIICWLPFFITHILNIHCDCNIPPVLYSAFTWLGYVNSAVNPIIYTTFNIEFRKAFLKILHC
D2-L (long form of D2 receptor), sequence (P14416 whole entry): as the sequence (P14416 whole entry) above
D1 dopamine receptor (Rattus norvegicus, UniProt P18901), sequence (P18901 whole entry): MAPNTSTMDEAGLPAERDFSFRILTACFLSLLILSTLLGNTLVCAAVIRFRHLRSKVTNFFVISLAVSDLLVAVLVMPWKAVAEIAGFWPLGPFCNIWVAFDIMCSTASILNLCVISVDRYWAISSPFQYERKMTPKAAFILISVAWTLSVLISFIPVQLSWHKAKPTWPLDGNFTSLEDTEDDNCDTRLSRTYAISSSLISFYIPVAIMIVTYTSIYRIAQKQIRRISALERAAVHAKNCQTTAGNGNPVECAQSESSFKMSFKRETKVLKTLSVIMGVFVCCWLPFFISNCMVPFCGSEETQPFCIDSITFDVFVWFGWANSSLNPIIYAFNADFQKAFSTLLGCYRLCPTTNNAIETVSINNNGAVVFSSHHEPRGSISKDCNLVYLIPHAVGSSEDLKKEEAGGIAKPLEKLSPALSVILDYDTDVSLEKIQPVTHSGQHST

CCCN1CCC[C@H]2c3c(OC)cccc3OC[C@@H]21.Cl (stereo in doubt) [CGS-18102A, 10-methoxy-4-propyl-1,2,3,4a,5,10b-hexahydro-4H-[1]-benzopyrano[3,4-b]pyridine hydrochloride]
Formula I Affinity Ratio [1, 26]: 2.06 | D2 Affinity [2]: 7.4 | 5-HT2A Affinity [3]: 6.6

CN(C)CCCN1c2ccccc2Sc2ccc(Cl)cc21 [Chlorpromazine]
α1 affinity value (−log KD) [4]: 8.6^16

CN1CCN(C2=Nc3cc(Cl)ccc3Nc3ccccc32)CC1 [Clozapine]
Extra-pyramidal side effects [5]: 3

CN(C)CCO[C@]1(c2ccccc2)C[C@H]2CC[C@]1(C)C2(C)C.O=C(O)/C=C/C(=O)O [Deramciclane, (1R,2S,4R)-(−)-2-[2-(N,N-dimethylamino)-ethoxy]-2-phenyl-1,7,7-trimethylbicyclo[2.2.1]heptane]
5-HT2C Affinity [6]: 7.8 | Formula I Affinity Ratio [1, 26]: 2.09 | D2 Affinity [2]: 7 | 5-HT2A Affinity [3]: 8

O=C1NCN(c2ccccc2)C12CCN(CCCC(c1ccc(F)cc1)c1ccc(F)cc1)CC2 [Fluspirilene]
5-HT2C affinity value (−logKi) [7]: 5.7^6 | α2 affinity value (−logKi) ([8]; species for α2 not stated): <5.3^6 | 5-HT1A affinity value (−logKi) [9]: 7.3^6 | α1 affinity value (−logKi) [10]: 7.0^6 | (2C/2A) + (2C/D2) ([1]; Table 2, sum of affinity ratios from data of Table 1): 1.33 | D2-S affinity value (−logKi) [11]: 8.9^6 | D4 affinity value (−logKi) [12]: 8.4^6 | mACh affinity value (−logKi) [13]: <5.3^6 | 5-HT3 affinity value (−logKi) [14]: <5.3^6 | 5-HT7 affinity value (−logKi) [15]: 7.5^6 | D2-L affinity value (−logKi) [16]: 9.2^6 | sigma affinity value (−logKi) [17]: 6.8^6

CN(C)CCSc1nc2ccccc2cc1-c1ccccc1 [ICI-169369]
5-HT2C Affinity [6]: 8 | Formula I Affinity Ratio [1, 26]: 2.27 | D2 Affinity [2]: 6.5 | 5-HT2A Affinity [3]: 7.7

CC(C)N1CCN(CCN2CCC(c3cn(-c4ccc(F)cc4)c4cc(Cl)ccc34)CC2)C1=O [LU-26042]
5-HT2C Affinity [6]: 7.8 | Formula I Affinity Ratio [1]: 2.02 | D2 Affinity [2]: 6.9 | 5-HT2A Affinity [3]: 8.8

Cc1cc2c(s1)Nc1ccccc1N=C2N1CCN(C)CC1 [Olanzapine]
Extra-pyramidal side effects [5]: 1-2 | Increases prolactin levels [18]: 2 | Weight Gain [19]: 2 | weight gain (in words) ([19]; text b109, literature reports): do cause weight gain

COc1cc(OC)c(C(=O)CCCCN2CCC3(CC2)NC(=O)NC3=O)cc1NS(=O)(=O)c1ccc(C(F)(F)F)cc1 [RS-102221]
5-HT2C Affinity [6]: 8.2 | Formula I Affinity Ratio [1, 26]: 2.78 | 5-HT2A Affinity [3]: 5.8

CCN1CCCC1CNC(=O)c1cc(S(N)(=O)=O)ccc1OC (stereo not drawn) [Sulpiride]
5-HT7 affinity value (−logKi) [20]: <5.3^2 | 5-HT6 affinity value (−logKi) [21]: <5.3^2 | D1 affinity value (−logKi) [22]: <5^9

CSc1ccc2c(c1)N(CCC1CCCCN1C)c1ccccc1S2 (stereo not drawn) [Thioridazine]
D4 affinity value (−logKi) [12]: 7.9^12

O=C1Cc2cc(CCN3CCN(c4nsc5ccccc45)CC3)c(Cl)cc2N1 [Ziprasidone]
Extra-pyramidal side effects [5]: 2 | 5-HT2C affinity value (−logKi) [7]: 7.9^6 | α2 affinity value (−logKi) ([8]; no reference given): <6 | 5-HT1A affinity value (−logKi) [9]: 7.9^6 | Increases prolactin levels [18]: 3 | D1 affinity value (−logKi) [23]: 6.3^14 | 5-HT7 affinity value (−logKi) [20]: 7.6^14 | Weight Gain [19]: 3 | α1 affinity value (−logKi) [24]: 8.0^14 | 5-HT3 affinity value (−logKi) [14]: 5.5^6 | 5-HT7 affinity value (−logKi) [15]: 8.3^6 | 5-HT6 affinity value (−logKi) [21]: 6.9^14 | sigma affinity value (−logKi) [17]: <5.3^6 | Improvement negative symptoms [25]: 2
